Literature values as cited in patent publication US8202852B2, “Creatine phosphate analog prodrugs, compositions and uses thereof” (XenoPort, Inc., priority 2006, dated 2012).
Read-outs that look alike come from different tables or passages of the source.

Assays:
[1] = not given; remark: listed apart in the source
[2] = animals, diet containing up to 1%

In the case of `CN(CC(=O)O)C(=N)N.O` [creatine monohydrate], the adverse side effects (athletes and body builders, 2-3 gm/day) is given as “without adverse side effects”.

In the case of `CN(CC(=O)O)C(=N)NP(=O)(O)O` [creatine phosphate], the adverse side effects (patients with cardiac diseases, intravenous injection up to 8 gm/day) is given as “without adverse side effects”.

For `CN(CC(=O)O)C(=N)N` [creatine, Creatine], the “overall increase in creatine phosphate levels” value ([1]; creatine supplementation, typically takes weeks) is given as under 50% and the “increase in cerebral creatine phosphate” value ([1]; healthy volunteers, oral creatine administration) is given as “about 10%”.

In the case of `NC1=NCCN1CC(=O)O` [cyclocreatine], the adverse effects [2] is listed as “do not exhibit adverse effects”.
